These results are taken from PMC10740580, “Benzothiazole-Phthalimide Hybrids as Anti-Breast Cancer and Antimicrobial Agents” (Antibiotics, 2023).

Values after ≈ are worked out from the molar mass of the structure shown.

Data set [1] relates to MDA-MB-231 cells. The data set can be described thus: MTT cell viability assay, MDA-MB-231. The format is cell-based, human. As to conditions: mean ± SD; for IC50: Homo sapiens, MDA-MB-231, 72 h exposure. How it is done: The anticancer activity of the studied compounds (3a–h) was explored with regards to two human breast cancer cell lines, namely the estrogen receptor positive (ER+) MCF-7 cells and the triple negative MDA-MB-231 cells (ER-, PR-, and HER-2/Neu-). Cells were continuously exposed to the test substances for 72 h, after which their viability was assessed by means of the MTT assay. Table 2 lists the determined IC50 values for the investigated substances and the reference drug, thalidomide. […] Additionally, the same test for all the compounds has been performed on nonmalignant breast epithelial cells (MCF-10A) to ascertain their potential cytotoxicity.
The four cell lines used in this work (MCF-7, MDA-MB-231, MCF-10A, and 3T3-L1) were obtained from the American Type Culture Collection (ATCC, Manassas, VA, USA). All cell lines were maintained at 37 °C in a humidified atmosphere of 95% air and 5% CO2 and periodically screened for contamination. MCF-7, human breast cancer cells estrogen receptor (ER)-positive, and human breast cancer triple negative MDA-MB231 were grown in DMEM-F12 medium containing 2 mmol/L L-glutamine, 1 mg/mL penicillin–streptomycin, and 5% newborn calf serum (NCS) or 5% fetal bovine serum (FBS), respectively. MCF-10A human mammary epithelial cells were cultured in DMEM/F12 medium, supplemented with 5% horse serum (HS) (Eurobio, Les Ullis, Cedex, France), 100 U/mL penicillin/streptomycin, […], 20 ng/mL hEGF (human epidermal growth factor), […], and […] (Sigma-Aldrich, Milano, Italy). BALB/3T3 murine fibroblast cells were cultured in DMEM high glucose supplemented with 10% bovine calf serum (BCS), 1% L-glutamine, and 100 U/mL penicillin/streptomycin.
Cell viability was evaluated by means of the 3-(4,5-dimethylthiazol-2-y1)-2,5-diphenyltetra zolium bromide (MTT, Sigma-Aldrich, Milan, Italy) assay. On 48-well plates, cells were seeded, and they were cultured in complete medium. Before being treated, cells were starved in serum-free medium for 24 h to allow cell cycle synchronization. Subsequently, cells were exposed to increasing doses of each compound for 72 h in phenol-red-free media supplemented with 1% serum before fresh MTT was added to each well (final concentration: 0.5 mg/mL). Cells were lysed with DMSO after 2 h of incubation at 37 °C, and optical density at 570 nm was then determined with a microplate reader. Using GraphPad Prism 9 software (GraphPad Inc., San Diego, CA, USA), the mean absorbance for each sample was expressed as a percentage over the control and plotted vs. drug concentrations to establish the IC50 values. The given standard deviations (SDs) are indicative of three separate tests carried out in triplicate.

Data set [2] deals with Candida parapsilosis 22019. Put plainly: Antifungal microdilution, C. parapsilosis ATCC 22019. The format is cell-based. The note with it: microdilution CLSI M27-A3, 48 h, 37 °C, read-out: MIC C.p. 22019. How it is done: (§1) In accordance with CLSI guidelines, compounds 3a–h were tested against a variety of fungal strains (Candida albicans 10231, Candida albicans 90028, Candida glabrata 15126, and Candida parapsilosis 22019) belonging to the ATCC collection. Amphotericin B was utilized as a reference drug. A similar trend of results, or even better than that obtained against bacteria, was assessed against fungal strains. […] Also, in this case, compound 3h emerged as the best of the series, with MICs of 16 μg/mL against Candida glabrata and Candida parapsilosis strains and 32 μg/mL against Candida albicans strains.
(§2) A microdilution technique described by the Clinical and Laboratory Standards Institute (CLSI, M27-A3) was used to assess the antifungal activity. The following fungal strains, belonging to the ATCC collection and available as freeze-dried discs, were used: C. albicans ATCC 10231, C. albicans ATCC 90028, C. glabrata ATCC 15126, and C. parapsilosis ATCC 22019. Stock solutions were prepared and preserved with purity as previously described for the antibacterial studies. Each yeast strain’s pre-cultures were made in Sabouraud broth (SAB) and allowed to grow until they stopped at 37 °C. By using a spectrophotometric technique (530 nm, range 0.12–0.15), the turbidity of the yeast stock suspension was calibrated to 0.5 McFarland Standard. Next, the standardized suspension was diluted first at 1:50 with SAB and then at 1:20 in the same medium to have […]. A total of 100 µL of inoculum was seeded into each well. As a control for growth, several wells containing only inoculated broth were prepared. The plates were incubated for 48 h at 37 °C, and the MIC values were calculated as the final well with no fungal growth. […] MIC values were observed based on the absence of fungal growth in the final well. The MICs were calculated by conducting the antifungal test three times in duplicate. As a control, amphotericin B was used.

Data set [3] deals with Candida albicans 10231. Put plainly: Antifungal microdilution, C. albicans ATCC 10231. As to conditions: microdilution CLSI M27-A3, 48 h, 37 °C. The format is cell-based. The procedure:
as §1, §2

Data set [4] concerns Candida albicans 90028. Put plainly: Antifungal microdilution, C. albicans ATCC 90028. The format is cell-based. As to conditions: microdilution CLSI M27-A3, 48 h, 37 °C. The procedure: as §1, §2

`O=C1c2ccccc2C(=O)N1c1nc2ccccc2s1` [3a, 2-(1,3-benzothiazol-2-yl)-1H-isoindole-1,3(2H)-dione] gave a melting point of 249 to 250 °C. Also, in data set [1], it took 81.8 ± 0.8 µM to reach half-maximal inhibition (IC50). In data set [2], the MIC came out at 32 µg/mL (≈ 114 µM). This compound registered a minimum inhibitory concentration (MIC) in data set [3] of 64 µg/mL (≈ 228 µM). This compound showed a minimal inhibitory concentration (MIC) in data set [4] of 64 µg/mL (≈ 228 µM).
Regarding `O=C1c2ccccc2C(=O)N1c1nc2ccc(F)cc2s1` [3b, 2-(6-Fluoro-1,3-benzothiazol-2-yl)-1H-isoindole-1,3(2H)-dione], the melting point lay within 234 to 235 °C. Further, the 50% inhibitory concentration (IC50) in data set [1] worked out at 71.2 ± 1 µM. Besides, the MIC in data set [2] worked out at 32 µg/mL (≈ 107 µM). In data set [3], this compound returned an MIC of 64 µg/mL (≈ 215 µM). Further, the MIC in data set [4] is 64 µg/mL (≈ 215 µM).
On to `O=C1c2ccccc2C(=O)N1c1nc2ccc(C(F)(F)F)cc2s1` [3c, 2-[6-Trifluoromethyl-1,3-benzothiazol-2-yl]-1H-isoindole-1,3(2H)-dione], for which the “IC50 MDA-MB-231” value in data set [1] (72 h exposure) is recorded as “did not possess any activity”. Also, the half-inhibitory concentration (IC50) in data set [1] was > 500 µM. Further, the MIC in data set [2], in data set [3] and in data set [4] was 64 µg/mL (≈ 184 µM) each time.
For the compound `Cc1ccc2nc(N3C(=O)c4ccccc4C3=O)sc2c1` [3d, 2-[6-Methyl-1,3-benzothiazol-2-yl]-1H-isoindole-1,3(2H)-dione], the melting point is > 250 °C. For the same compound, inhibition in data set [1] was half-maximal at 202.6 ± 0.6 µM (IC50). Besides, the MIC in data set [2] is > 512 µg/mL. Moreover, the MIC in data set [3] was > 512 µg/mL. The MIC in data set [4] is > 512 µg/mL.
Turning to `COc1ccc2nc(N3C(=O)c4ccccc4C3=O)sc2c1` [3e, 2-[6-Methoxy-1,3-benzothiazol-2-yl]-1H-isoindole-1,3(2H)-dione], the melting point lay in the range of 227 to 229 °C. The compound also came in with an IC50 in data set [1] of 102.8 ± 0.9 µM. In data set [2], the minimum inhibitory concentration (MIC) was 32 µg/mL (≈ 103 µM). The same compound yielded an MIC in data set [3] of 64 µg/mL (≈ 206 µM). In addition, in data set [4], the MIC is 64 µg/mL (≈ 206 µM).
On to `COc1cc2nc(N3C(=O)c4ccccc4C3=O)sc2cc1OC` [3f, 2-[5,6-Dimethoxy-1,3-benzothiazol-2-yl]-1H-isoindole-1,3(2H)-dione], for which the melting point was > 250 °C. In data set [1], this compound showed a half-inhibitory concentration (IC50) of 49.6 ± 1 µM. The minimum inhibitory concentration (MIC) in data set [2] was found to be 32 µg/mL (≈ 94 µM). The same compound had a minimal inhibitory concentration (MIC) in data set [3] of 32 µg/mL (≈ 94 µM). This compound returned an MIC in data set [4] of 64 µg/mL (≈ 188 µM).
As for `O=C1c2ccccc2C(=O)N1c1nc2ccc(O)cc2s1` [3g, 2-[6-Hydroxy-1,3-benzothiazol-2-yl]-1H-isoindole-1,3(2H)-dione], the melting point was > 250 °C. For the same compound, half-maximal inhibition in data set [1] (IC50) required 63.3 ± 0.7 µM. The MIC in data set [2] stood at 32 µg/mL (≈ 108 µM). The compound further displayed an MIC in data set [3] of 32 µg/mL (≈ 108 µM). In data set [4], this compound displayed an MIC of 64 µg/mL (≈ 216 µM).
Compound `O=C1c2ccccc2C(=O)N1c1nc2ccc(Oc3ccccc3)cc2s1` [3h, 2-[6-Phenoxy-1,3-benzothiazol-2-yl]-1H-isoindole-1,3(2H)-dione] had an IC50 in data set [1] of 14 ± 0.5 µM. Further, the MIC in data set [2] was found to be 16 µg/mL (≈ 43 µM); in data set [3] it was 32 µg/mL (≈ 85.9 µM); in data set [4], 32 µg/mL (≈ 85.9 µM).
